Test [1] has as its target T1, H^+ K^+ ATPase (Sus scrofa, UniProt P19156).
T1 construct: Lyophilised gastric vesicles were prepared from pig fundic mucosa; from tissue; host or cells: pig fundic mucosa, lyophilised gastric vesicles
The test can be described thus: H^+ K^+ ATPase Activity (K^+ -stimulated ATPase activity in lyophilised gastric vesicles). It is filed as biochemical. The conditions noted are these: pig lyophilised gastric vesicles, pH 7.0, 37°, 30 minutes. The method, then:
The effects of a single high concentration (100 μM) of a compound of structure (I) on K-stimulated ATPase activity in lyophilised gastric vesicles was determined. Preferred compounds of structure (I) were also tested over a range of concentrations to determine IC50 values.
Lyophilised gastric vesicles were prepared from pig fundic mucosa after the method of Keeling et. al. (Biochem. Pharmacol., 34, 2967, 1985).
K^+ -stimulated ATPase activity was determined at 37° in the presence of the following: 10 mM Pipes/Tris buffer pH 7.0, 2 mM MgSO4, 1 mM KCl, 2 mM Na2 ATP and 3-6 μg protein/ml lyophilised gastric vesicles. After incubation for 30 minutes, the inorganic phosphate hydrolysed from ATP was determined by the method of Yoda and Hokin (Biochem. Biophys. Res. Commun. 40, 880, 1970).
Compounds of structure (I) were dissolved in dimethylsulphoxide which up to the highest concentration used had no effect on K^+ -stimulated ATPase activity.
The effect of the highest concentration of each compound of structure (I) on the recovery of a standard amount of inorganic phosphate was also determined.

For test [2], the system named is pentagastrin stimulated gastric acid secretion. The test can be described thus: Rat Lumen Perfused Stomach (pentagastrin stimulated gastric acid secretion). The class given is in vivo. The conditions noted are these: for % inhibition of pentagastrin stimulated gastric acid secretion: i.v., 10 μmole/kg. The source says: B. Rat Lumen Perfused Stomach (pentagastrin stimulated gastric acid secretion).
Using a modification of the procedure described by Ghosh & Schild (Br. J. Pharmacology, 13, 54, 1958), the compounds of the following examples were found on i.v. administration at a concentration of 10 μmole/kg to cause an inhibition of pentagastrin stimulated gastric acid secretion as indicated in the following table. Results are given as % inhibition at 10 μmole/kg or ED50 (μM/kg): […]

SMILES strings stand for the structures.

Five molecules from patent publication US5006535A, “Substituted heterocylic 4-aminoquinoline derivatives as gastric acid secretion inhibitors” (Smith Kline & French Laboratories Ltd., priority 1988, dated 1991) can be followed below.

The IC50 is the concentration that inhibits the measured activity by half. A high value points to weaker potency in that assay. For orientation: ED50 means the midpoint of the dose-response relation.

T1 sequence (P19156 2-1034 limits assumed): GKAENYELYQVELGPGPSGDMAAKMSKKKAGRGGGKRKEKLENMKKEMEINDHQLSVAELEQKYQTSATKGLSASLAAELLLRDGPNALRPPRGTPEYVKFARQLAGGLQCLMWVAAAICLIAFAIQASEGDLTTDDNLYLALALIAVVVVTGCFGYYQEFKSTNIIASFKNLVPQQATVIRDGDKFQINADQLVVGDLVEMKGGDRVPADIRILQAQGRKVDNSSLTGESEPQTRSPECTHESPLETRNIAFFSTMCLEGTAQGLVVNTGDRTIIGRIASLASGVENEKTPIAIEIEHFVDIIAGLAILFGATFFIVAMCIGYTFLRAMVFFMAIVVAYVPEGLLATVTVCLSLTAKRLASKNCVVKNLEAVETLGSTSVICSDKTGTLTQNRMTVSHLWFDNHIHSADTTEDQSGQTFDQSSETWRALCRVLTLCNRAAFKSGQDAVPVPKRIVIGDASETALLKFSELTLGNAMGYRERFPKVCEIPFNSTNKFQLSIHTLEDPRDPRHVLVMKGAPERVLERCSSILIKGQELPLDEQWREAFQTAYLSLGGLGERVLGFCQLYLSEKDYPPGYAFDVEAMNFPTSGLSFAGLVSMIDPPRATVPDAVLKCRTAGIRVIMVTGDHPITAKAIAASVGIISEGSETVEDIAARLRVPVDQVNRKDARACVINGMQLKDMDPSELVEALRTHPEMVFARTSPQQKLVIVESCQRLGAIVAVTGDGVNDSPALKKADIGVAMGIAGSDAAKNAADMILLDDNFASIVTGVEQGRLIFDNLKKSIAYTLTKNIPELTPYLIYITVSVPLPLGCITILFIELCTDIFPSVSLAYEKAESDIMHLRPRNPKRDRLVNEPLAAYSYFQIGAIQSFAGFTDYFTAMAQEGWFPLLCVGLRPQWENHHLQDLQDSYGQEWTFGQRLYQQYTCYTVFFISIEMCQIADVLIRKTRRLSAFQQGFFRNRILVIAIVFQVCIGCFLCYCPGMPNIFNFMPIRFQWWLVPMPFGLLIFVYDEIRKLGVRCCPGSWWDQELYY
T1 sequence (P18434 whole entry partner): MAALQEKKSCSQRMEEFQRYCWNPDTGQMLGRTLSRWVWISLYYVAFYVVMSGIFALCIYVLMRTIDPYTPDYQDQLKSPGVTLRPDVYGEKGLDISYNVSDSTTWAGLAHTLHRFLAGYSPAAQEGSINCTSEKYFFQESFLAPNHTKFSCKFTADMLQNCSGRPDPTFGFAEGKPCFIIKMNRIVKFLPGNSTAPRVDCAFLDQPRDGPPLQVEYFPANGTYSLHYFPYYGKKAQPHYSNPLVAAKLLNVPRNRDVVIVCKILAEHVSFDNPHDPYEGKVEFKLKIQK

In turn, `CCOC(=O)c1cnc2c(OC)cccc2c1Nc1cscc1C` [Example 1, Ethyl 8-methoxy-4-(4-methyl-3-thienylamino)quinoline 3-carboxylate] displayed an IC50 in test [1] of 530 nM. The ED50 in test [2] (iv, read-out: ED50, inhibition of pentagastrin stimulated gastric acid secretion) turned out to be 4.62 µmol/kg.
For `CCOC(=O)c1cnc2c(OC)cccc2c1Nc1cscc1OC` [Example 5, Ethyl 8-methoxy-4-(4-methoxy-3-thienylamino)quinoline-3-carboxylate], the IC50 in test [1] came to 3400 nM. In addition, in test [2], the “% inhibition of pentagastrin stimulated gastric acid secretion” value (shortened to “% inhibition”) worked out at 41%.
Molecule `CCCC(=O)c1cnc2c(OC)cccc2c1Nc1sccc1C` [Example 4, 3-Butyryl-4-(3-methyl-2-thienylamino)-8-methoxyquinoline] displayed an IC50 in test [1] of 2300 nM. The “% inhibition” value in test [2] is given as 58%.
With `CCCC(=O)c1cnc2c(OC)cccc2c1Nc1ccsc1C(=O)OC` [Example 3], the “% inhibition” value in test [2] came out at 48%.
On to `CCCC(=O)c1cnc2c(OC)cccc2c1Nc1ccsc1CC` [Example 2, 3-Butyryl-4-(2-ethyl-3-thienylamino)-8-methoxyquinoline], for which the IC50 in test [1] came to 1400 nM. For the same molecule, the “% inhibition” value in test [2] was 61%.
